{"source": "patent US12514832B2", "about": "“Methods for using low-dose colchicine after myocardial infarction” (INSTITUT DE CARDIOLOGIE DE MONTREAL, priority 2019, dated 2026)", "key": {"[1]": {"system": "high-sensitivity C-reactive protein", "test": "COLCOT biomarker substudy: high-sensitivity C-reactive protein", "type": "in vivo, human", "source_text": "(§1) Additional prespecified exploratory end points included the change from baseline to 6 months in the high-sensitivity C-reactive protein level and the change from baseline to 12 months in the white-cell count. The C-reactive protein biomarker substudy was implemented after a protocol amendment and was optional for sites and for patients; 34 sites chose to participate in this substudy.\n(§2) The analysis of the primary end point was repeated in the per-protocol population (i.e., patients without major protocol deviations). Secondary and exploratory end points expressed as time to event were analyzed similarly. The changes from baseline to follow-up were analyzed with the use of an analysis of covariance model with adjustment for baseline value, and estimates of treatment effect are presented with 95% confidence intervals.\nHigh-sensitivity C-reactive protein was measured in a subgroup of only 207 patients at the time of randomization and 6 months later, and the median concentration at trial entry was 4.28 mg per liter. […] The adjusted geometric mean percent changes in the high-sensitivity C-reactive protein level at 6 months after myocardial infarction were −70.0% in the colchicine group and −66.6% in the placebo group, and the placebo-adjusted geometric mean percent change was −10.1% percentage points in the colchicine group (95% CI, −28.6 to 13.4) (Table 8).\n(§3) In Table 8, the placebo-adjusted geometric mean percent change was obtained by exponentiating the adjusted mean difference between groups from the analysis of covariance model (based on log-transformed data), then subtracting 1 and multiplying by 100.\n(§4) In addition, the C-reactive protein biomarker sub-study was implemented following a protocol amendment and was optional for sites and for patients; 34 sites accepted to participate in this substudy. There were 213 and 208 patients who provided blood samples at baseline and 6 months, respectively. Paired baseline and 6-month hs-CRP values were available in 207 patients. Clinically available white blood cell counts were obtained from 2598 patients at baseline and 1998 patients at 12 months, and paired baseline and 12-month values were available in 1972 patients. Statistical analysis was conducted on the patients who provided both baseline and follow-up data and as these were exploratory analyses, no missing data was imputed."}, "[2]": {"system": "white blood cell count", "test": "COLCOT white blood cell counts (total, lymphocytes, neutrophils)", "type": "in vivo, human", "conditions": "for Total white blood cell count, geometric mean / Total white blood cell count, Adjusted GM percent change: N=992", "source_text": "as §1, §2, §3, §4\nInformation about white-cell counts at baseline and at the 12-month follow-up were also available for a relatively small subgroup of 1972 patients. The adjusted geometric mean percent changes from baseline to 1 year in the total white-cell count were −18.8% in the colchicine group and −19.0% in the placebo group, with no significant difference between groups (0.3% percentage points; 95% CI, −2.2 to 2.7)."}, "[3]": {"test": "COLCOT safety and adverse events (safety population)", "type": "in vivo, human", "experimental": "All serious adverse events were recorded. The only other adverse events recorded were those that were considered to be related to the gastrointestinal system, events that were judged by the investigator to be related to colchicine or placebo, or laboratory abnormalities that had been judged by the investigator to be clinically significant."}, "[4]": {"system": "patients with stable coronary disease", "conditions": "LoDoCo, 0.5 mg once daily, 532 patients, not placebo-controlled; cited from earlier work"}, "[5]": {"conditions": "baseline to 12 months, colchicine vs placebo"}}}
{"molecule": "COc1cc2c(c(OC)c1OC)-c1ccc(OC)c(=O)cc1[C@@H](NC(C)=O)CC2", "note": "[Colchicine, colchicine]", "values": [{"measurement": "Hs-C reactive protein, geometric mean", "setting": "[1]; at 6 months, N=99", "result": 1.37, "unit": "mg/L"}, {"measurement": "Hs-C reactive protein, geometric mean", "setting": "[1]; at Randomization (baseline), N=99", "result": 4.27, "unit": "mg/L"}, {"measurement": "Hs-C reactive protein, Adjusted GM percent change", "setting": "[1]; baseline to 6 months, N=99", "result": "−70.0", "unit": "%"}, {"measurement": "Hs-C reactive protein, Placebo-adjusted GM percent change", "setting": "[1]; baseline to 6 months, colchicine vs placebo", "result": "−10.1", "unit": "%"}, {"measurement": "reduction in the C-reactive protein level", "setting": "[1]; over the first 6 months after myocardial infarction, in both trial groups, difference between groups not significant", "result": "> 65", "unit": "%"}, {"measurement": "Circulating lymphocytes, geometric mean", "setting": "[2]; at 12 months", "result": "1.83 10^3/μL"}, {"measurement": "Circulating neutrophils, geometric mean", "setting": "[2]; at 12 months", "result": "3.95 10^3/μL"}, {"measurement": "Total white blood cell count, geometric mean", "setting": "[2]; at 12 months", "result": "6.95 10^3/μL"}, {"measurement": "Circulating lymphocytes, geometric mean", "setting": "[2]; at Randomization (baseline)", "result": "1.79 10^3/μL"}, {"measurement": "Circulating neutrophils, geometric mean", "setting": "[2]; at Randomization (baseline)", "result": "5.45 10^3/μL"}, {"measurement": "Total white blood cell count, geometric mean", "setting": "[2]; at Randomization (baseline)", "result": "8.54 10^3/μL"}, {"measurement": "Circulating lymphocytes, Adjusted GM percent change", "setting": "[2]; baseline to 12 months", "result": 1.80, "unit": "%"}, {"measurement": "Circulating neutrophils, Adjusted GM percent change", "setting": "[2]; baseline to 12 months", "result": "−27.63", "unit": "%"}, {"measurement": "Total white blood cell count, Adjusted GM percent change", "setting": "[2]; baseline to 12 months", "result": "−18.81", "unit": "%"}, {"measurement": "Total white blood cell count, Adjusted GM percent change", "setting": "[2]; baseline to 12 months, listed as colchicine", "result": "−18.8", "unit": "%"}, {"measurement": "Circulating lymphocytes, Placebo-adjusted GM percent change", "setting": "[2]; [5]", "result": 1.10, "unit": "%"}, {"measurement": "Circulating neutrophils, Placebo-adjusted GM percent change", "setting": "[2]; [5]", "result": 0.45, "unit": "%"}, {"measurement": "Total white blood cell count, Placebo-adjusted GM percent change", "setting": "[2]; [5]", "result": 0.26, "unit": "%"}, {"measurement": "Total white blood cell count, Placebo-adjusted GM percent change", "setting": "[2]; baseline to 12 months, colchicine vs placebo, listed as colchicine", "result": 0.3, "unit": "%"}, {"measurement": "trial regimen discontinued, percent of patients", "setting": "[3]; at the end of the trial", "result": 18.4, "unit": "%"}, {"measurement": "incidence of septic shock (in words)", "setting": "[3]; colchicine vs placebo", "result": "did not increase the incidence of septic shock"}, {"measurement": "Cancers, excluding nonmelanoma skin cancers, number of patients", "setting": "[3]; safety population", "result": 42}, {"measurement": "Cancers, excluding nonmelanoma skin cancers, percent", "setting": "[3]; safety population", "result": 1.8, "unit": "%"}, {"measurement": "Anemia, number of patients", "setting": "[3]; safety population, N=2330", "result": 14}, {"measurement": "Anemia, percent", "setting": "[3]; safety population, N=2330", "result": 0.6, "unit": "%"}, {"measurement": "Any related adverse event, number of patients", "setting": "[3]; safety population, N=2330", "result": 372}, {"measurement": "Any related adverse event, percent", "setting": "[3]; safety population, N=2330", "result": 16.0, "unit": "%"}, {"measurement": "Any serious adverse event, number of patients", "setting": "[3]; safety population, N=2330", "result": 383}, {"measurement": "Any serious adverse event, percent", "setting": "[3]; safety population, N=2330", "result": 16.4, "unit": "%"}, {"measurement": "Cancer, number of patients", "setting": "[3]; safety population, N=2330", "result": 43}, {"measurement": "Cancer, percent", "setting": "[3]; safety population, N=2330", "result": 1.8, "unit": "%"}, {"measurement": "Diarrhea adverse event, number of patients", "setting": "[3]; safety population, N=2330", "result": 225}, {"measurement": "Diarrhea adverse event, percent", "setting": "[3]; safety population, N=2330", "result": 9.7, "unit": "%"}, {"measurement": "Flatulence adverse event, number of patients", "setting": "[3]; safety population, N=2330", "result": 15}, {"measurement": "Flatulence adverse event, percent", "setting": "[3]; safety population, N=2330", "result": 0.6, "unit": "%"}, {"measurement": "Gastrointestinal adverse event, number of patients", "setting": "[3]; safety population, N=2330", "result": 408}, {"measurement": "Gastrointestinal adverse event, percent", "setting": "[3]; safety population, N=2330", "result": 17.5, "unit": "%"}, {"measurement": "Gastrointestinal hemorrhage, number of patients", "setting": "[3]; safety population, N=2330", "result": 7}, {"measurement": "Gastrointestinal hemorrhage, percent", "setting": "[3]; safety population, N=2330", "result": 0.3, "unit": "%"}, {"measurement": "Gastrointestinal serious adverse event, number of patients", "setting": "[3]; safety population, N=2330", "result": 46}, {"measurement": "Gastrointestinal serious adverse event, percent", "setting": "[3]; safety population, N=2330", "result": 2.0, "unit": "%"}, {"measurement": "Hospitalization for heart failure, number of patients", "setting": "[3]; safety population, N=2330", "result": 25}, {"measurement": "Hospitalization for heart failure, percent", "setting": "[3]; safety population, N=2330", "result": 1.1, "unit": "%"}, {"measurement": "Infection serious adverse event, number of patients", "setting": "[3]; safety population, N=2330", "result": 51}, {"measurement": "Infection serious adverse event, percent", "setting": "[3]; safety population, N=2330", "result": 2.2, "unit": "%"}, {"measurement": "Leukopenia, number of patients", "setting": "[3]; safety population, N=2330", "result": 2}, {"measurement": "Leukopenia, percent", "setting": "[3]; safety population, N=2330", "result": 0.1, "unit": "%"}, {"measurement": "Nausea adverse event, number of patients", "setting": "[3]; safety population, N=2330", "result": 43}, {"measurement": "Nausea adverse event, percent", "setting": "[3]; safety population, N=2330", "result": 1.8, "unit": "%"}, {"measurement": "Pneumonia serious adverse event, number of patients", "setting": "[3]; safety population, N=2330", "result": 21}, {"measurement": "Pneumonia serious adverse event, percent", "setting": "[3]; safety population, N=2330", "result": 0.9, "unit": "%"}, {"measurement": "Septic shock serious adverse event, number of patients", "setting": "[3]; safety population, N=2330", "result": 2}, {"measurement": "Septic shock serious adverse event, percent", "setting": "[3]; safety population, N=2330", "result": 0.1, "unit": "%"}, {"measurement": "Thrombocytopenia, number of patients", "setting": "[3]; safety population, N=2330", "result": 3}, {"measurement": "Thrombocytopenia, percent", "setting": "[3]; safety population, N=2330", "result": 0.1, "unit": "%"}, {"measurement": "serious adverse event of myopathy", "setting": "[3]; statins used in 99% of trial participants", "result": "no serious adverse event of myopathy linked to colchicine occurred"}, {"measurement": "cardiovascular events versus no colchicine (in words)", "setting": "[4]", "result": "fewer cardiovascular events than those not receiving colchicine"}]}
